Legend:
GPR139 = molecular target: T1, GPR139 (Homo sapiens, UniProt Q6DWJ6); assay: GPR139 FLIPR cell calcium signal detection in GPR139-transfected HEK293 cells; format: cell-based; conditions: HEK293 cells transfected with GPR139, read-out: EC50 values of compounds for GPR139
T1 construct: expressed in transfected cells; host or cells: HEK293
T1 sequence (Q6DWJ6 1-353): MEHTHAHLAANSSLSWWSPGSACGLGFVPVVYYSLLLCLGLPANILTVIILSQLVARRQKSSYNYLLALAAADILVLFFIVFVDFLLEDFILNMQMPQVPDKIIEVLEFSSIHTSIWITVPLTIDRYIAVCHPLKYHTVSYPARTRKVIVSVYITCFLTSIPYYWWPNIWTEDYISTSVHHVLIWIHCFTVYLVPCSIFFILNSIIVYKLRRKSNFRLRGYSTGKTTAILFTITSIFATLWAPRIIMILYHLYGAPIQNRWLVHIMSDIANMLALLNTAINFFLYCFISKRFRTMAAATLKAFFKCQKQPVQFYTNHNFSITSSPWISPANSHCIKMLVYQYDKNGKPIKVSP
Protocol: HEK293 cells were grown in a 10 cm culture dish containing DMEM complete medium (containing glutamine, sodium pyruvate, penicillin/streptomycin, 10% fetal bovine serum) and incubated at 37° C. in a 5% CO2 incubator until 90% confluency. Then subculture twice a week at a ratio of 1:5. During cell passaging, the culture medium was first completely removed, washed once with 4 mL of DPBS, and then 3 mL of trypsin digestion solution was added and mixed well. When cell dissociation was observed, the trypsin solution was aspirated and 5 mL of complete DMEM medium was added. The cells were dispersed by pipetting, and 1 mL of cell suspension was added to each of five new 10 cm culture dishes. Then, 7 mL of complete DMEM medium was supplemented to each dish. After mixing, the cells were cultured at 37° C. in a 5% CO2 incubator.
On the transfection day, cells were digested and seeded into one 10 cm culture dish at appropriate density. 6 mL of DMEM/F12 medium (containing glutamine, sodium pyruvate, HEPES, and fetal bovine serum) was added, and the cells were cultured for 5 hours at 37° C. in 5% CO2. A 50 mL sterile centrifuge tube (Tube A) was taken, and 1 mL of serum-free DMEM/F12 medium (containing glutamine, sodium pyruvate, and HEPES) was added, followed by 10 μg of GPR139 DNA. The mixture was mixed well. Another 50 mL sterile centrifuge tube (Tube B) was taken, and 1 mL of serum-free DMEM medium (containing glutamine, sodium pyruvate, and HEPES) was added, followed by 60 μL of Fugene HD transfection reagent. The mixture was mixed well. 1 mL of Fugene HD transfection reagent from Tube B was transferred to Tube A, mixed well, and incubated at room temperature for 20 minutes. 2 mL of DMEM/F12 medium (containing glutamine, sodium pyruvate, HEPES, and fetal bovine serum) was added to Tube A. After mixing, 4 mL of mixture from Tube A was transferred to the prepared 10 cm dish (total volume 10 mL). The cells were cultured for 20-24 hours at 37° C. in 5% CO2.
The next day, the transfected cells were digested with trypsin digestion solution, and appropriate DMEM/F12 medium (containing glutamine, sodium pyruvate, HEPES, penicillin/streptomycin, fetal bovine serum) was added. The cells were seeded into Matrigel coated 384-well plates with a cell density of 6.67×10^6 cells/mL, 30 μL/well. The 384-well plates were cultured at 37° C. in 5% CO2.
On the third day, 10 μL/well of FLIPR dye (diluted in HEPES solution containing Pluronic and Probenecid) was added to the 384-well cell plate. And the plate was incubated for 40 minutes at 37° C. in 5% CO2. Diluted compounds were added to the cell plate and calcium signals were measured using a FLIPR plate reader.
Data were analyzed using XL-fit software to obtain EC50 values for each compound.

[1] = test system: LPS induced mouse depression model; assay: LPS induced mouse depression model, body weight; format: in vivo; conditions: male CD1 (ICR) mice; gavage 2.5 mg/mL at 0.1 mL/10 g twice daily Day 1-4; LPS i.p. Day 4; weighed Day 5; FIG. 4
Source text: (§1) Mice: Male Crl: CD1 (ICR) mice; 10-14 weeks old; Weight: 35-40 g; Quantity: 40 pieces
(§2) Group 1, placebo+saline group: 10 mice; divided into 2 cages, 5 mice per cage.
(§3) Group 2, placebo+lipopolysaccharide (LPS) group: 10 mice; divided into 2 cages, 5 mice per cage.
(§4) Group 3, compound NRB181+saline group: 10 mice; divided into 2 cages, 5 mice per cage.
(§5) Group 4, compound NRB181+lipopolysaccharide (LPS) group: 10 mice; divided into 2 cages, 5 mice per cage.
(§6) 21.3.1 Preparation of placebo before experiment: 0.5% CMC sodium+1% Tween80+saline. In a clean bench, 4 tubes of 40 mL placebo were prepared using pyrogen-free centrifuge tubes and ultrapure water, totaling 160 mL, ensuring the absence of endotoxins (LPS). Sterile and endotoxin free centrifuge tubes were used to divide […] of placebo into 4 mL/tube, for a total of 30 tubes, and stored at 4° C. for future use.
LPS with a purity of >98% was required 3.2 mg of LPS was accurately weighed and dissolved in 40 mL of placebo to prepare a sterile solution of 0.08 mg/mL. […]
21.3.4 On the first day of the experiment at 8:00 am, four groups of mice were randomly divided into groups, and the weight of each mouse was recorded before being placed back in their respective cages. […]
21.3.14 On the Day 5 of the experiment at 9:00 am, each group of mice was weighed and recorded, and then were returned to their home cages.

[2] = test system: LPS induced mouse depression model; assay: LPS induced mouse depression model, corticosterone level; format: in vivo; conditions: gavage 2.5 mg/mL at 0.1 mL/10 g twice daily Day 1-4, blood collected Day 5, FIG. 8
Source text: as §1, §2, §3, §4, §5, §6
LPS with a purity of >98% was required 3.2 mg of LPS was accurately weighed and dissolved in 40 mL of placebo to prepare a sterile solution of 0.08 mg/mL. After thorough mixing, the solution was divided into sterile and endotoxin-free centrifuge tubes, 4 mL per tube. The LPS solution needed for the next day was stored at 4° C. (3 tubes), while the rest was frozen at −20° C. for future use. […]

In the case of C[C@H](NC(=O)CNC(=O)c1cc(Cl)ccn1)c1c(F)cccc1F [NRB181], the EC50 (GPR139) is reported as 0.1 to 100 nM, the “weight loss (body weight changes)” value [1] is reported as “significantly alleviate weight loss” and the “expression level of corticosterone” value [2] is reported as “significantly reduce the expression level of corticosterone”.

— patent US20260166016A1, “GPR139 RECEPTOR AGONIST, PREPARATION METHOD THEREFOR, AND APPLICATION THEREOF” (NEUBO APPTECH CO., LTD., priority 2022, published 2026)
